Consider 15 compounds from ChEMBL document CHEMBL1150330, “Muscarinic antagonists with multiple stereocenters: Synthesis, affinity profile and functional activity of isomeric 1-methyl-2-(2,2-alkylaryl-1,3-oxathiolan-5-yl)pyrrolidine sulfoxide derivatives” (Bioorg Med Chem, 2008).

What is called Ki is a measure of affinity in units of concentration, obtained from inhibition or displacement. A lower Ki goes with higher affinity. Usually pKb stands for the Kb on a negative log10 scale, so that one unit is a factor of ten.

The target of assay [1] is T1, Muscarinic acetylcholine receptor M4 (Homo sapiens, UniProt P08173).
T1 sequence (P08173 whole entry): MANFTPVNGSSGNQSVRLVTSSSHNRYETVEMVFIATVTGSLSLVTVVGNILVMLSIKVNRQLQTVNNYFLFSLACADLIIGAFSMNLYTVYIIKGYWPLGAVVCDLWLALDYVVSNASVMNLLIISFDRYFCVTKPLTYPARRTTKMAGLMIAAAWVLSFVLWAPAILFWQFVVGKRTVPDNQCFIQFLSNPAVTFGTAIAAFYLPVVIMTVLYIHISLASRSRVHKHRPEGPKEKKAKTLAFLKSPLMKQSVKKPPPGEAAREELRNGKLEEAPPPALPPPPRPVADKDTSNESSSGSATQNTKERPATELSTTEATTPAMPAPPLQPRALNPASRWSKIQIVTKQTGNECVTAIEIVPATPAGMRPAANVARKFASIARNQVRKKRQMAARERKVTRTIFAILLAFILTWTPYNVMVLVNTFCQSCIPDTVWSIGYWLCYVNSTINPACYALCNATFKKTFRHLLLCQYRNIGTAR
Kind of assay: Displacement of [3H]NMS from human muscarinic M4 receptor expressed in CHO cells. The class given is cell-based.

Assay [2] in a line: Antagonist activity against muscarinic M2 receptor in guinea pig atria assessed as effect on electrically-stimulated atria. The class given is functional, Cavia porcellus.
The target of assay [3] is T2, Muscarinic acetylcholine receptor M5 (Homo sapiens, UniProt P08912).
T2 sequence (P08912 whole entry): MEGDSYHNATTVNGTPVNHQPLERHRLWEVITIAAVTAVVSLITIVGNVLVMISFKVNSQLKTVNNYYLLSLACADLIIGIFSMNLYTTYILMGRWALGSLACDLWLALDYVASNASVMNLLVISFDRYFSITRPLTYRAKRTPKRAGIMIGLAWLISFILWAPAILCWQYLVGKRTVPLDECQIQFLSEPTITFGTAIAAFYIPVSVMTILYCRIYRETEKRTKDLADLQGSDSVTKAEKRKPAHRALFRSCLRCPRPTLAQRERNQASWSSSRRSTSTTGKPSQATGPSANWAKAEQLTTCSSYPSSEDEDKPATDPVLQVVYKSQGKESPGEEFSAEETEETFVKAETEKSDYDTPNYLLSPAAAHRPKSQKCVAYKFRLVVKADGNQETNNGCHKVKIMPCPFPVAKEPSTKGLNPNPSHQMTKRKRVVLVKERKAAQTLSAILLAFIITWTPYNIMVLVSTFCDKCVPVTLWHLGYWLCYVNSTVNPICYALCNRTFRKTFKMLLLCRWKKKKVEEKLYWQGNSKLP
As to the kind of experiment: Displacement of [3H]NMS from human muscarinic M5 receptor expressed in CHO cells. The class given is cell-based. (Loss of bound radioactivity is the signal in a displacement assay; it reports binding, not function.)

Assay [4] is described as follows: Antagonist activity against muscarinic M4 receptor in guinea pig lung strip assessed as effect on electrically-stimulated contraction. The assay is classed as functional, Cavia porcellus.
Assay [5] deals with T3, Muscarinic acetylcholine receptor M1 (Homo sapiens, UniProt P11229).
T3 sequence (P11229 whole entry): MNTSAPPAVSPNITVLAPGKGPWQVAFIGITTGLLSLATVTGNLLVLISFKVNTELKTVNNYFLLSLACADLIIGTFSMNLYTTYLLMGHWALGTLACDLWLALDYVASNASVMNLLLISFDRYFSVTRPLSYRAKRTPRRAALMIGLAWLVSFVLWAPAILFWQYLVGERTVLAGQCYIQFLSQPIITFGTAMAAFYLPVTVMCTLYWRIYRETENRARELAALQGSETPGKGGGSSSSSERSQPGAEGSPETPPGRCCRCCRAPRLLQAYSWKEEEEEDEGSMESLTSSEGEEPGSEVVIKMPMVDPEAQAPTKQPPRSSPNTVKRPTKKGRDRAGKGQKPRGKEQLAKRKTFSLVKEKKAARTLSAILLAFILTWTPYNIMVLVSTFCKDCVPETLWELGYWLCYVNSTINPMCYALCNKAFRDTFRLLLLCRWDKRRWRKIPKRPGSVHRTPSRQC
Kind of assay: Displacement of [3H]NMS from human muscarinic M1 receptor expressed in CHO cells. The assay is classed as cell-based.

Assay [6] can be described thus: Antagonist activity against muscarinic M3 receptor in guinea pig ileum assessed as effect on ileum tension. The assay is classed as functional, Cavia porcellus.
The target in assay [7] is T4, Muscarinic acetylcholine receptor M2 (Homo sapiens, UniProt P08172).
T4 sequence (P08172 whole entry): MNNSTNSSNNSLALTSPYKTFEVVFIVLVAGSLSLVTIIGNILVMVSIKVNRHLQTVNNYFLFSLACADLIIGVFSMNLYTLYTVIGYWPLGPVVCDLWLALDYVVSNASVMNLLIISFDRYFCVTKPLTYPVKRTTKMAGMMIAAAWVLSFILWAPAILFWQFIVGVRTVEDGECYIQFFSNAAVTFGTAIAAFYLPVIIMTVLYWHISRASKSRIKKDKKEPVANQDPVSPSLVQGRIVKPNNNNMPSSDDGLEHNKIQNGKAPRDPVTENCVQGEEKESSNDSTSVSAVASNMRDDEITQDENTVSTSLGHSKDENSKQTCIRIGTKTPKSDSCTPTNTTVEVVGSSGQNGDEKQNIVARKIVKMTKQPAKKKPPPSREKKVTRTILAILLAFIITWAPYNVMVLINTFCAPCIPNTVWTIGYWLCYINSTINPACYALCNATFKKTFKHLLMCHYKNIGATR
Kind of assay: Displacement of [3H]NMS from human muscarinic M2 receptor expressed in CHO cells. The assay is classed as cell-based.

The target in assay [8] is Muscarinic acetylcholine receptor M3 (Homo sapiens, UniProt P20309). As to the kind of experiment: Displacement of [3H]NMS from human muscarinic M3 receptor expressed in CHO cells. The assay is classed as cell-based.
Sequence of Muscarinic acetylcholine receptor M3 (P20309 whole entry): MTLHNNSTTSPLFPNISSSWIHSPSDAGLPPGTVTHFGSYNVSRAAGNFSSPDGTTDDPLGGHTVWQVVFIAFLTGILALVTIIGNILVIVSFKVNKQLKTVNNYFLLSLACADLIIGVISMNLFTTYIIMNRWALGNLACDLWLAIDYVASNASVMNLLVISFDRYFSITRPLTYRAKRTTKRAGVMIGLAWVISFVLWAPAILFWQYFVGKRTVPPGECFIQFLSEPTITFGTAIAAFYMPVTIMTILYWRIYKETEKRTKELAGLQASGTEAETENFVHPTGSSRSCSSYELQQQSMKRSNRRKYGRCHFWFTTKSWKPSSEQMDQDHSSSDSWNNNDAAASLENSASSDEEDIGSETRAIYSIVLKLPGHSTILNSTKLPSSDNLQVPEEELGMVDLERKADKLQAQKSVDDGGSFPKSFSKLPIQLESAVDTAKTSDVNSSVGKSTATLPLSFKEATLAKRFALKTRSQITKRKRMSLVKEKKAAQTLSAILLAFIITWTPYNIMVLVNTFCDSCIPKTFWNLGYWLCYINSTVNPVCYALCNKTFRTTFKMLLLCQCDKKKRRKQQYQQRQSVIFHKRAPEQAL

On to `C[N+](C)(C)C[C@@H]1C[S@](=O)[C@@](c2ccccc2)(C2CCCCC2)O1.[I-]`, for which the Ki in assay [1] is 95.5 nM; in assay [3], 141 nM; in assay [5], 21.9 nM; in assay [7], 74.1 nM; in assay [8] it was 34.7 nM. Besides, the pKb is 7.52 in assay [2], 5.24 in assay [4] and 7.64 in assay [6].
With `CN1CCC[C@H]1[C@H]1C[S+]([O-])C(c2ccccc2)(c2ccccc2)O1` (stereo in doubt; (+)-4), the Ki in assay [1] is 1020 nM; in assay [3], 513 nM; in assay [5] it was 110 nM; in assay [7] it was 562 nM; in assay [8], 468 nM. The results for the pKb in assay [2], in assay [4] and in assay [6] were 6, 5.29 and 6.55, respectively.
On to `CN1CCC[C@@H]1[C@@H]1C[S+]([O-])C(c2ccccc2)(c2ccccc2)O1` (stereo in doubt; (+)-5), for which the Ki in assay [1] was 316 nM; in assay [3] it was 339 nM; in assay [5], 110 nM; in assay [7], 39.8 nM; in assay [8], 282 nM. The pKb in assay [2] stood at 7.1; in assay [4], 5.63; in assay [6], 7.17.
In the case of `CN1CCC[C@H]1[C@H]1C[S+]([O-])[C@@](c2ccccc2)(C2CCCCC2)O1` (stereo in doubt; (+)-6), the Ki in assay [1] is 447 nM; in assay [3], 525 nM; in assay [5], 155 nM; in assay [7], 1020 nM; in assay [8], 389 nM. The pKb in assay [2] is 5.48; in assay [4], less than 5; in assay [6] it was 6.43.
For `CN1CCC[C@H]1[C@H]1C[S+]([O-])[C@@](c2ccccc2)(C2CCCCC2)O1` (stereo in doubt; (+)-7), the Ki is 33.1 nM in assay [1]; 25.1 nM in assay [3]; 10 nM in assay [5]; 64.6 nM in assay [7]; 18.2 nM in assay [8]. Moreover, the values for the pKb in assay [2], in assay [4] and in assay [6] were 7.56, 5.2 and 7.96, respectively.
In the case of `CN1CCC[C@@H]1[C@@H]1C[S+]([O-])[C@@](c2ccccc2)(C2CCCCC2)O1` (stereo in doubt; (+)-8), the Ki in assay [1] is 93.3 nM; in assay [3], 30.2 nM; in assay [5] it was 38 nM; in assay [7], 66.1 nM; in assay [8], 24 nM. Besides, the pKb is given as 7.05 in assay [2], less than 5 in assay [4] and 7.71 in assay [6].
As for `CN1CCC[C@@H]1[C@@H]1C[S+]([O-])[C@@](c2ccccc2)(C2CCCCC2)O1` (stereo in doubt; (+)-9), the Ki in assay [1] was 257 nM; in assay [3], 288 nM; in assay [5] it was 107 nM; in assay [7], 38 nM; in assay [8], 200 nM. Moreover, the pKb in assay [2] stood at 7.72; in assay [4], 6.16; in assay [6] it was 7.59.
In the case of `C[N+]1(C)CCC[C@H]1[C@H]1C[S+]([O-])C(c2ccccc2)(c2ccccc2)O1.[I-]` (stereo in doubt; (+)-10), the Ki in assay [1] is 209 nM; in assay [3], 91.2 nM; in assay [5], 29.5 nM; in assay [7] it was 141 nM; in assay [8] it was 209 nM. For the same compound, the pKb is 7.2 in assay [2], 5.54 in assay [4] and 6.95 in assay [6].
For `C[N+]1(C)CCC[C@@H]1[C@@H]1C[S+]([O-])C(c2ccccc2)(c2ccccc2)O1.[I-]` (stereo in doubt; (+)-11), the Ki was 1170 nM in assay [1]; 813 nM in assay [3]; 324 nM in assay [5]; 195 nM in assay [7]; 417 nM in assay [8]. Besides, the pKb in assay [2] stood at 7; in assay [4], 5.25; in assay [6], 7.62.
As for `C[N+]1(C)CCC[C@H]1[C@H]1C[S+]([O-])[C@@](c2ccccc2)(C2CCCCC2)O1.[I-]` (stereo in doubt; (+)-12), the inhibitory constant (Ki) in assay [1] was 58.9 nM; in assay [3] it was 23.4 nM; in assay [5], 12 nM; in assay [7], 70.8 nM; in assay [8], 26.9 nM. Also, the pKb in assay [2] turned out to be 6.57; in assay [4], 5.41; in assay [6], 7.03.
As to `C[N+]1(C)CCC[C@H]1[C@H]1C[S+]([O-])[C@@](c2ccccc2)(C2CCCCC2)O1.[I-]` (stereo in doubt; (+)-13), the Ki is 15.8 nM in assay [1]; 3.02 nM in assay [3]; 3.02 nM in assay [5]; 17.8 nM in assay [7]; 4.17 nM in assay [8]. The pKb is 7.81 in assay [2], 6.37 in assay [4] and 8.67 in assay [6].
Regarding `C[N+]1(C)CCC[C@@H]1[C@@H]1C[S+]([O-])[C@@](c2ccccc2)(C2CCCCC2)O1.[I-]` (stereo in doubt; (+)-14), the Ki in assay [1] was 19.1 nM; in assay [3], 14.1 nM; in assay [5], 6.92 nM; in assay [7] it was 21.4 nM; in assay [8], 6.92 nM. Moreover, the negative-log Kb (pKb) in assay [2] amounted to 7.98; in assay [4], 7.59; in assay [6], 9.
On to `C[N+]1(C)CCC[C@@H]1[C@@H]1C[S+]([O-])[C@@](c2ccccc2)(C2CCCCC2)O1.[I-]` (stereo in doubt; (+)-15), for which the Ki in assay [1] was 302 nM; in assay [3] it was 224 nM; in assay [5], 93.3 nM; in assay [7], 77.6 nM; in assay [8] it was 162 nM. Moreover, the results for the pKb in assay [2], in assay [4] and in assay [6] were 6.97, 6.48 and 7.1, respectively.
As to `CN1CCC[C@@H]1[C@@H]1C[S+]([O-])C(c2ccccc2)(c2ccccc2)O1` (stereo in doubt; (-)-4), the Ki in assay [1] was 513 nM; in assay [3] it was 355 nM; in assay [5], 74.1 nM; in assay [7], 229 nM; in assay [8], 513 nM. In addition, the figures for the pKb in assay [2], in assay [4] and in assay [6] were 7.27, 5.75 and 6.95, respectively.
For the compound `CN1CCC[C@H]1[C@H]1C[S+]([O-])C(c2ccccc2)(c2ccccc2)O1` (stereo in doubt; (-)-5), the Ki in assay [1] was 407 nM; in assay [3], 229 nM; in assay [5] it was 145 nM; in assay [7], 219 nM; in assay [8] it was 302 nM. Further, the pKb is on record as 6.42 in assay [2], less than 5 in assay [4] and 6.99 in assay [6].
